According to patent publication US9481683B2, “1,3-benzothiazinone sulfoxide and sulfone compounds” (UNIVERSITY OF NOTRE DAME DU LAC, priority 2014, dated 2016):
Values after ≈ are worked out from the molar mass of the structure shown. Read-outs that look alike come from different tables or passages of the source.

Assays:
[1] = test system: S. aureus SG511; experiment: Broth microdilution MIC, S. aureus; format: cell-based, Staphylococcus aureus; settings: 37° C., 18-20 h, average of three measurements
[2] = test system: M. vaccae IMET10670; experiment: Broth microdilution MIC, M. vaccae; format: cell-based, Mycobacterium vaccae; settings: 37° C., 18-20 h, average of three measurements
[3] = test system: A. baumanii ATCC17961; experiment: Broth microdilution MIC, A. baumanii; format: cell-based, Acinetobacter baumanii; settings: 37° C., 18-20 h, average of three measurements
[4] = test system: M. luteus ATCC10240; experiment: Broth microdilution MIC, M. luteus; format: cell-based; settings: 37° C., 18-20 h, average of three measurements
[5] = test system: M. smegmatis (MC2155); experiment: Broth microdilution MIC, M. smegmatis; format: cell-based, Mycobacterium smegmatis; settings: 37° C., 18-20 h, average of three measurements
[6] = test system: M. aurum (SB66); experiment: Broth microdilution MIC, M. aurum; format: cell-based, Mycobacterium aurum; settings: 37° C., 18-20 h, average of three measurements, in µM
[7] = test system: P. aeruginosa KW799/61; experiment: Broth microdilution MIC, P. aeruginosa; format: cell-based, Pseudomonas aeruginosa; settings: 37° C., 18-20 h, average of three measurements
[8] = test system: Mtb H37Rv (ATCC#27294); experiment: Microplate Alamar Blue assay (MABA), replicating TB; format: cell-based, Mycobacterium tuberculosis; settings: for MIC: Mycobacterium tuberculosis, H37Rv, reduction in fluorescence of ≧90%
[9] = test system: MCF-7 (breast cancer); experiment: Cytotoxicity, crystal violet biomass reduction assay, MCF-7; format: cell-based; settings: 72 h
Method: (§1) Cytotoxicity Assays: against PC3, HeLa and MCF-7 cell lines.
(§2) In vitro activities against cells were determined with a crystal violet biomass reduction assay. Cells were grown in media supplemented with fetal bovin serum and penicillin/streptromycin antibiotic. 100 μL of cell inoculums was added to each well. After cell inoculation, the 96 well micro-titer plates were incubated at 37° C. and 5% CO2 with 95% humidity for 24 h prior to addition of compounds. A stock solution of each compound was made in DMSO and then diluted with media to give a 40 μM solution. 100 μL of DMSO/media solutions of compounds were added in replicates of 3. 100 μL solution was added to the first set of wells. Two-fold serial dilutions were made down each row of the micro-titer plate. The cells were incubated in a 37° C., 5% CO2 and 95% humidity for 72 h. The media was removed and the cells were fixed with glutaraldehyde, rinsed, stained with crystal violet, rinsed and air dried. The stain was eluted with a solution of Triton-X-100 and optical density was measured at 595 nm. Trichostatin A was used as a positive control for all the cell lines tested.

[10] = test system: HeLa; experiment: Cytotoxicity, crystal violet biomass reduction assay, HeLa; format: cell-based; settings: 72 h
Method: as §1, §2

[11] = test system: M. marinum (ATCC: 927); experiment: NTM MIC assay, M. marinum; format: cell-based, Mycobacterium marinum; settings: for In vitro activity (MIC) M. marinum: Middlebrook 7H9 with OADC, 30° C., 5 days
[12] = test system: M. kansasii (ATCC:12478); experiment: NTM MIC assay, M. kansasii; format: cell-based, Mycobacterium kansasii; settings: for In vitro activity (MIC) M. kansasii: Middlebrook 7H9 with OADC, 37° C., 6 days
[13] = test system: PC3 (prostate cancer); experiment: Cytotoxicity, crystal violet biomass reduction assay, PC3; format: cell-based; settings: 72 h
Method: as §1, §2

[14] = test system: M. bovis BCG (ATCC: 35734); format: cell-based, Mycobacterium bovis; settings: for In vitro activity (MIC) M. bovis: M. bovis BCG, 7H12, 37° C., 6 days
[15] = 7H12 medium, read-out: MABA:MIC 7H12
[16] = glycerol-alanine-salts medium, read-out: MABA:MIC GAS

| Structure (SMILES) | In vitro activity (MIC) S. aureus SG511 [1] [µM] | In vitro activity (MIC) M. vaccae IMET10670 [2] [µM] | In vitro activity (MIC) A. baumanii ATCC17961 [3] [µM] | In vitro activity (MIC) M. luteus ATCC10240 [4] [µM] | In vitro activity (MIC) M. smegmatis [5] [µM] | In vitro activity (MIC) M. aurum [6] | In vitro activity (MIC) P. aeruginosa KW799/61 [7] | Activity against M. tuberculosis (in words) [8] | MIC [8, 15] [µM] | MIC [8, 16] [µM] | Cytotoxicity MCF-7 [9] | Cytotoxicity HeLa [10] | In vitro activity (MIC) M. marinum [11] [µM] | In vitro activity (MIC) M. kansasii [12] [µM] | Cytotoxicity PC3 [13] | Activity against M. bovis (in words) [14] | In vitro activity (MIC) M. bovis [14] [µM] | Activity against M. marinum (in words) [11] | Activity against M. kansasii (in words) [12] |
| --- | --- | --- | --- | --- | --- | --- | --- | --- | --- | --- | --- | --- | --- | --- | --- | --- | --- | --- | --- |
| O=C(O)c1cn(C2CC2)c2cc(N3CCNCC3)c(F)cc2c1=O [Ciprofloxacin, reference compound] | 0.32 | 0.32 | 0.156 | 1.25 | 0.32 | 0.020 | 0.156 |  |  |  |  |  |  |  |  |  |  |  |  |
| C[C@H]1COC2(CCN(c3nc(=O)c4cc(C(F)(F)F)cc([N+](=O)[O-])c4s3)CC2)O1 [Compound 1, BTZ043, reference compound] | > 0.2 | 0.002 | > 200 | > 200 | 0.002 | >200 | >200 | impressive activity | < 0.02 | < 0.02 | >20 | >20 | 0.037 | < 0.02 | >20 | impressive activity | < 0.02 |  |  |
| C[C@H]1COC2(CCN(c3nc(=O)c4cc(C(F)(F)F)cc([N+](=O)[O-])c4[s+]3[O-])CC2)O1 (stereo partly drawn) [Compound 5, 2-((S)-2-Methyl-1,4-dioxa-8-azaspiro[4.5]decan-8-yl)-8-nitro-6-(trifluoromethyl)-4H-benzo[e][1,3]thiazin-4-one 1-oxide] | 12.5 | < 0.013 | > 200 | 50 | < 0.013 | 3.13-12.5 | >200 | impressive activity | 0.06 (≈ 0.0268 µg/mL) | < 0.02 | >20 | >20 | 0.19 | 0.3 | 15 | impressive activity | 0.21 | demonstrated activity | demonstrated activity |
| C[C@H]1COC2(CCN(C3=NC(=O)c4cc(C(F)(F)F)cc([N+](=O)[O-])c4S3(=O)=O)CC2)O1 [Compound 6, (S)-2-(2-Methyl-1,4-dioxa-8-azaspiro[4.5]decan-8-yl)-8-nitro-6-(trifluoromethyl)-4H-benzo[e][1,3]thiazin-4-one 1,1-dioxide] | 0.2 | < 0.013 | > 200 | > 200 | > 0.5 | >200 | >200 | only weakly active | 1.46 (≈ 0.677 µg/mL) | 0.75 | >20 | >20 |  |  | >20 | only weakly active |  | either inactive or weakly inactive | either inactive or weakly inactive |
| NNC(=O)c1ccncc1 [INH] |  |  |  |  |  |  |  |  | 0.1 (≈ 0.0137 µg/mL) | 0.03 |  |  | > 8 | 3.86 |  |  | 0.5 |  |  |
| CO[C@H]1/C=C/O[C@@]2(C)Oc3c(C)c(O)c4c(O)c(c(/C=N/N5CCN(C)CC5)c(O)c4c3C2=O)NC(=O)/C(C)=C\C=C\[C@H](C)[C@H](O)[C@@H](C)[C@@H](O)[C@@H](C)[C@H](OC(C)=O)[C@@H]1C [Rifampin] |  |  |  |  |  |  |  |  | 0.05 (≈ 0.0411 µg/mL) | 0.04 |  |  | 0.23 | 0.1 |  |  | 0.02 |  |  |
